Reference: ChEMBL document CHEMBL1201862, “PubChem BioAssay data set” (2004)
The source made the active and inactive calls.

Assays:
[1] = target: Beta-galactosidase (Escherichia coli, UniProt Q8VNN2); experiment: PubChem AID 485352; format: functional
[2] = target: T1, Heat shock factor protein 1 (Mus musculus, UniProt P38532); experiment: decrease of HSF1-responsive luciferase luminescence – cell-based, NIH3T3, dose retest, confirmation (AID 2382); format: functional;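 further: NIH3T3 fibroblasts with HSF1-driven luciferase reporter stressed by proteasome inhibitor MG132; luminescence from HSF1-driven luciferase expression after 8 hours of MG132 stress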
T1 sequence (P38532 whole entry): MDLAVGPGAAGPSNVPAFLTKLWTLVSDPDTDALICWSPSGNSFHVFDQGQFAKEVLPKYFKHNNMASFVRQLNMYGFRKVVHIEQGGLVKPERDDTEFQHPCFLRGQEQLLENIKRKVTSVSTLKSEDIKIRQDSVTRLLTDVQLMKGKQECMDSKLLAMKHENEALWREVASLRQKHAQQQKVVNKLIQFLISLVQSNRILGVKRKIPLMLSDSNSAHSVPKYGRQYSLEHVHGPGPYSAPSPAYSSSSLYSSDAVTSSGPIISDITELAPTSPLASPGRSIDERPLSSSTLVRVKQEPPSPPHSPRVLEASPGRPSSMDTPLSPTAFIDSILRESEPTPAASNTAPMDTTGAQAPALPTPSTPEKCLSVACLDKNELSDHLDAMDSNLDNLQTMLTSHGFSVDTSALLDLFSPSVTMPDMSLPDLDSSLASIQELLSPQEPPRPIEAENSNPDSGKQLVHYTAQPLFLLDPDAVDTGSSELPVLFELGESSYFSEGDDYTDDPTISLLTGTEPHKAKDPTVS

[3] = Trypanosoma cruzi growth suppression in host cells – NIH3T3 host cells, beta-gal luminescence, confirmation (AID 2044); format: functional, cell-based;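 further: intracellular parasites grown in NIH/3T3 mouse fibroblasts as host cells; luminescent beta-galactosidase reporter signal from transgenic T. cruzi replicating inside host cells; inhibitors lower the luminescence signal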
[4] = microbe, parasite or virus in culture; format: functional; details: Mycobacterium tuberculosis
[5] = Luminescence-based dose response cell-based high throughput screening assay for cytotoxic compounds using the IEC-6 intestinal epithelial cell line. [Related pubchem assays: 1858 (Summary AID.), 1825 (Counterscreen.), 1907 (Confirmation screen.)]; format: functional
[6] = target: T2, Type-1 angiotensin II receptor (Homo sapiens, UniProt P30556); experiment: antagonism of angiotensin II type 1 receptor – cell-based, uHTS hits, selectivity assay for APJ receptor antagonist project, dose response (AID 463214); format: functional;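 further: antagonist potency against angiotensin II stimulated AT1 response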
T2 sequence (P30556 whole entry): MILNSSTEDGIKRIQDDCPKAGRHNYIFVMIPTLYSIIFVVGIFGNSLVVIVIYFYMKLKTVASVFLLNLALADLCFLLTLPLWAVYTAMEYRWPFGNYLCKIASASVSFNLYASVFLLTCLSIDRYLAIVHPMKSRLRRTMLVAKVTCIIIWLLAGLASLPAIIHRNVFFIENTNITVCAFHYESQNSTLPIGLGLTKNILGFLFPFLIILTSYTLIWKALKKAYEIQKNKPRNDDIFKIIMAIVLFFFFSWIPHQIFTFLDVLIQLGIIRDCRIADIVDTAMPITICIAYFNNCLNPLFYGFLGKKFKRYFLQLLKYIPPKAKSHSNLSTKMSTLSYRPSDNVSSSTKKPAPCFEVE

[7] = NIH3T3 cell viability loss – ATP luminescence, mouse fibroblasts, counter-screen, dose response (AID 2010); format: functional, cell-based;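 further: cells exposed to compound for about 90 hours before reading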
[8] = test system: INS1; experiment: INS-1E survival protection against cytokine death – cell-based, luminescence, retest, dose response (AID 449756); format: functional; details: Rattus norvegicus;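 further: cell death triggered by IL-1 beta plus TNF-alpha plus IFN-gamma mixture; protective hits raise ATP signal compared with cytokine alone wells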
[9] = reduction of Shn3 3'UTR-driven luciferase in osteoblasts – cell-based, Clone20 osteoblasts, firefly luciferase, cherry-picked, dose response (AID 624132); format: functional;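 further: firefly luciferase luminescence from reporter carrying the Shn3 3'UTR in osteoblasts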
[10] = loss of viability in HepG2 cells – cell-based, CellTiter-Glo, cherry-picked, cytotoxicity control for Shn3 inhibitor project, dose response (AID 624134); format: functional
[11] = non-specific 3'UTR reporter inhibition in Clone20-Shn3RL – cell-based, Renilla luciferase, cherry-picked, counter-screen for Shn3 inhibitor project, dose response (AID 624133); format: functional
[12] = Fluorescence-based cell-based high throughput dose response assay for inhibitors of the interaction of nucleotide-binding oligomerization domain containing 2 (NOD2) and the receptor-interacting serine-threonine kinase 2 (RIPK2).; format: functional; details: Homo sapiens
[13] = A549 cell cytotoxicity, dose response, cytotoxicity control, plate reader, cherry-pick, antagonist series (AID 743412); format: functional, cell-based
[14] = toxicity toward HepG2 liver cells – cell-based, plate reader, cherry-pick, antagonist series, cytotoxicity control, dose response (AID 743416); format: functional
[15] = blockers of bursicon-stimulated LGR2 cAMP reporter – cell-based, HEK293, CRE-luciferase reporter, cherry pick, set 2, dose response (AID 743343); format: functional;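 further: transfected cells were stimulated with diluted bursicon conditioned medium after compound addition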
[16] = blockade of melanocortin 4 receptor signaling – cell-based, plate reader, cherry pick, counter-screen for LGR2 antagonist project, dose response (AID 743444); format: functional;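 further: transfected HEK 293 cells stimulated with alpha-MSH peptide; potency of inhibitors of the alpha-MSH evoked signal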
[17] = viability loss in HEK293 cells – cell-based, plate reader, cherry-picked samples, cytotoxicity control, dose response (AID 743446); format: functional
[18] = A Cell Based Secondary Assay To Explore Cytotoxicity of Compounds that Sensitize Mycobacterium Tuberculosis to Beta-Lactam Antibiotics.; format: functional
[19] = target: X-box-binding protein 1 (Homo sapiens, UniProt P17861); format: functional, Cricetulus griseus;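 further: confirmatory dose-response counter-screen serving a CHOP assay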
Chain of X-box-binding protein 1 (P17861 whole entry): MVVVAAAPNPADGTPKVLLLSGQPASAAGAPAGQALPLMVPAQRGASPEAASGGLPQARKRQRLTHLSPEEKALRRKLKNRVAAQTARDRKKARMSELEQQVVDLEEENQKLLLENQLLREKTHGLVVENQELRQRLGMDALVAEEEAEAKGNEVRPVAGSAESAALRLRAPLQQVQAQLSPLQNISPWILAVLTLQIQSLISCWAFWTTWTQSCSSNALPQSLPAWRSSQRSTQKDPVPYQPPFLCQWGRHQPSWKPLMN

[20] = target: Voltage-gated N-type calcium channel alpha-1B subunit/Amyloid beta A4 precursor protein-binding family A member 1 (Homo sapiens, UniProt Q00975+Q02410); experiment: disruptors of Mint-PDZ/N-type channel peptide interaction – biochemical, HTRF, set 2, SAR follow-up (AID 434980); format: functional
[21] = Luminescence Cell-Based Dose Confirmation HTS to Identify Inhibitors of Polyadenylation.; format: functional
[22] = target: Peroxisome proliferator-activated receptor gamma/Nuclear receptor coactivator 2 (Homo sapiens, UniProt P37231); format: functional;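 further: agonist potency for raising coactivator recruitment to the receptor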
[23] = target: Peroxisome proliferator-activated receptor gamma/Nuclear receptor coactivator 1 (Homo sapiens, UniProt P37231); format: functional;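 further: agonist potency as compounds enhance coactivator SRC-1 recruitment to PPARgamma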
[24] = target: Peroxisome proliferator-activated receptor gamma/Nuclear receptor coactivator 3 (Homo sapiens, UniProt P37231); format: functional;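 further: agonist potency for raising coactivator recruitment to the receptor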
Chain of Peroxisome proliferator-activated receptor gamma/Nuclear receptor coactivator 3 (P37231 whole entry): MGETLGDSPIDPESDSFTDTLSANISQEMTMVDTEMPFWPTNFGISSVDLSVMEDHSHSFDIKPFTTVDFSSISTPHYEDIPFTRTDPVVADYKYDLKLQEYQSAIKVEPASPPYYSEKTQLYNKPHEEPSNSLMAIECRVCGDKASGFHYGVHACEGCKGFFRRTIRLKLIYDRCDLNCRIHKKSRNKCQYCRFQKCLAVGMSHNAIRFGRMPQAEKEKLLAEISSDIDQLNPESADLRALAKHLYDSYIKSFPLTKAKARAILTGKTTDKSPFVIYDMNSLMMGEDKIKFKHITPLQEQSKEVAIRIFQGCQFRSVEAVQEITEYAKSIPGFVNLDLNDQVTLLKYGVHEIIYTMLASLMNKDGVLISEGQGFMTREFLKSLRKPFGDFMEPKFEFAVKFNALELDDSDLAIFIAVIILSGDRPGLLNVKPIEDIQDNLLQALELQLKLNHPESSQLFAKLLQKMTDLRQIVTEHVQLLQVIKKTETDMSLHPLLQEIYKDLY
Chain of Peroxisome proliferator-activated receptor gamma/Nuclear receptor coactivator 3 (Q9Y6Q9 whole entry, further chain): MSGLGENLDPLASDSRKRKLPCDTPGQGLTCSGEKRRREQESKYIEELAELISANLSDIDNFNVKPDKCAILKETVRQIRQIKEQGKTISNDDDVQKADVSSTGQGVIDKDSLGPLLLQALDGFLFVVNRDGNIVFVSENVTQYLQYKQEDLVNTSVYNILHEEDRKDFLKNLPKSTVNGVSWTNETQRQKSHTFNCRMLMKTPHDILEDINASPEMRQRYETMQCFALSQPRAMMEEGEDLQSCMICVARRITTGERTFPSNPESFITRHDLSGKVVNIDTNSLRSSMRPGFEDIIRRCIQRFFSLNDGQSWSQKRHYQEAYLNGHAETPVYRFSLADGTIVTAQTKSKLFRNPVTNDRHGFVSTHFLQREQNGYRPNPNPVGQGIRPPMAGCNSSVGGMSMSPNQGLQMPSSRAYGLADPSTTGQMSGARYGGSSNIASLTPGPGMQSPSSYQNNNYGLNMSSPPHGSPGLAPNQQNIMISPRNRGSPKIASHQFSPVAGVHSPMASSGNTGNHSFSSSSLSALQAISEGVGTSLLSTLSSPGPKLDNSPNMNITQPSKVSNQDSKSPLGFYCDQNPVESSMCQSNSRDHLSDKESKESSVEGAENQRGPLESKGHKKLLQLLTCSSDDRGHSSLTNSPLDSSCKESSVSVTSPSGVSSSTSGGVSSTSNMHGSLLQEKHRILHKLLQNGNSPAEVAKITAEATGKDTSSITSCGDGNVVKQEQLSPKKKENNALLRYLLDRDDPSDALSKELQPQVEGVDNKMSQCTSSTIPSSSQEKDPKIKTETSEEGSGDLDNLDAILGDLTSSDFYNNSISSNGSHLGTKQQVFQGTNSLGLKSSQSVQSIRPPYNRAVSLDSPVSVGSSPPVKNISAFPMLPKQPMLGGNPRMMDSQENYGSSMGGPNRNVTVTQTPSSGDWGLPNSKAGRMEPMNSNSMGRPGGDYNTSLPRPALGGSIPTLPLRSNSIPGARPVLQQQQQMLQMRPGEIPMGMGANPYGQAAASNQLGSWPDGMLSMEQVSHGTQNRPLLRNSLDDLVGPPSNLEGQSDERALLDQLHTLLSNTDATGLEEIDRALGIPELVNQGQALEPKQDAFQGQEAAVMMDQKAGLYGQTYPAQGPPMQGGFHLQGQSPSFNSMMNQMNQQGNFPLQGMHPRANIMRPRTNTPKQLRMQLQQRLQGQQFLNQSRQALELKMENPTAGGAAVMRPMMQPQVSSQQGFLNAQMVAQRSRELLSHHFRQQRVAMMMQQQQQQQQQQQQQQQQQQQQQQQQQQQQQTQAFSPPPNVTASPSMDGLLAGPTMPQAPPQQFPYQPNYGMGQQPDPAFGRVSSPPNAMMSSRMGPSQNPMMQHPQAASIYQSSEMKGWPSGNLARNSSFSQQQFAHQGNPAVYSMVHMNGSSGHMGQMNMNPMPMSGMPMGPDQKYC

[25] = target: T3, Aryl hydrocarbon receptor (Homo sapiens, UniProt P35869); experiment: Luminescence-based cell-based high throughput dose response assay for activators of the Aryl Hydrocarbon Receptor (AHR). [Related pubchem assays: 2796 (Primary screen (AHR activators in singlicate)), 2845 (Confirmation screen (AHR activators in triplicate)), 434939 (Counterscreen (PXR activators in triplicate)), 2804 (Summary (AHR activators))]; format: ADME
T3 sequence (P35869 whole entry): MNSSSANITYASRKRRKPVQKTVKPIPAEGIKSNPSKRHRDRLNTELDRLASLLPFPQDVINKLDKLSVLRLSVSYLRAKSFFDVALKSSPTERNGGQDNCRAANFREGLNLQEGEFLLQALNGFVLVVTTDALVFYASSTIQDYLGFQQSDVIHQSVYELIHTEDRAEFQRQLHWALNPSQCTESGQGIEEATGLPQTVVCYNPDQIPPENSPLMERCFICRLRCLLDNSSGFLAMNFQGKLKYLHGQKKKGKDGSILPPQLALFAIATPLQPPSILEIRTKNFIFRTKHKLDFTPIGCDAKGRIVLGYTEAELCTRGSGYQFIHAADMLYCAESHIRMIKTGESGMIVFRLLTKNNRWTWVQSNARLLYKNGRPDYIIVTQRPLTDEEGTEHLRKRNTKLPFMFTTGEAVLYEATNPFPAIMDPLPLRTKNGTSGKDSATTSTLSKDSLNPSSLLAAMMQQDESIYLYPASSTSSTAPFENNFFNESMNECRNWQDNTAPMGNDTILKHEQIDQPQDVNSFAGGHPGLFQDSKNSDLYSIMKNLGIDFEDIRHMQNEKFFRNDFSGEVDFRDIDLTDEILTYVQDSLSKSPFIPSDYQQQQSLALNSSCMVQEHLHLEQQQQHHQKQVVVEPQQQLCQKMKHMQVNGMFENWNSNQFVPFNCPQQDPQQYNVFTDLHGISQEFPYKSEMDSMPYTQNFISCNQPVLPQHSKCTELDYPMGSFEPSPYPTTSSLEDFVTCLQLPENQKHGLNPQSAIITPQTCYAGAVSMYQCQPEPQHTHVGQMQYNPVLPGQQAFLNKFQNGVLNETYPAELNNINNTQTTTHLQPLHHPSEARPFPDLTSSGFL

[26] = luciferase reporter signal suppression in cells – H4 neuroglioma cells, luminescence, dose response (AID 1990); format: functional, cell-based
[27] = test system: BJ; experiment: BJ-TERT fibroblast viability loss – cell-based, RAS-independent, luminescence, dose response (AID 1933); format: functional; details: Homo sapiens
[28] = Luminescence Cell-Based Dose Response HTS to Identify Inhibitors of 5'UTR Stem-Loop Driven Prion Protein mRNA Translation in H4 Neuroglioblastoma Cells. [Related pubchem assays: 1827 (Project Summary), 1813 (Primary HTS)]; format: functional
[29] = alpha-synuclein stem-loop luciferase translation blockers – H4 neuroglioma cells, luminescence, confirmation (AID 1988); format: functional, cell-based
[30] = test system: BJ; experiment: cells; format: functional, cell-based; details: Homo sapiens
[31] = test system: BJ; experiment: BJ-TERT-LT-ST fibroblast viability loss – cell-based, RAS-independent, luminescence, dose response (AID 1935); format: functional; details: Homo sapiens;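 further: BJ fibroblasts immortalized with TERT plus LT and ST oncogenes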
[32] = DRD fibroblast viability loss – cell-based, non-viral oncogenic, luminescence, dose response (AID 1934); format: functional; details: Homo sapiens

Chain of Beta-galactosidase (Q8VNN2 whole entry): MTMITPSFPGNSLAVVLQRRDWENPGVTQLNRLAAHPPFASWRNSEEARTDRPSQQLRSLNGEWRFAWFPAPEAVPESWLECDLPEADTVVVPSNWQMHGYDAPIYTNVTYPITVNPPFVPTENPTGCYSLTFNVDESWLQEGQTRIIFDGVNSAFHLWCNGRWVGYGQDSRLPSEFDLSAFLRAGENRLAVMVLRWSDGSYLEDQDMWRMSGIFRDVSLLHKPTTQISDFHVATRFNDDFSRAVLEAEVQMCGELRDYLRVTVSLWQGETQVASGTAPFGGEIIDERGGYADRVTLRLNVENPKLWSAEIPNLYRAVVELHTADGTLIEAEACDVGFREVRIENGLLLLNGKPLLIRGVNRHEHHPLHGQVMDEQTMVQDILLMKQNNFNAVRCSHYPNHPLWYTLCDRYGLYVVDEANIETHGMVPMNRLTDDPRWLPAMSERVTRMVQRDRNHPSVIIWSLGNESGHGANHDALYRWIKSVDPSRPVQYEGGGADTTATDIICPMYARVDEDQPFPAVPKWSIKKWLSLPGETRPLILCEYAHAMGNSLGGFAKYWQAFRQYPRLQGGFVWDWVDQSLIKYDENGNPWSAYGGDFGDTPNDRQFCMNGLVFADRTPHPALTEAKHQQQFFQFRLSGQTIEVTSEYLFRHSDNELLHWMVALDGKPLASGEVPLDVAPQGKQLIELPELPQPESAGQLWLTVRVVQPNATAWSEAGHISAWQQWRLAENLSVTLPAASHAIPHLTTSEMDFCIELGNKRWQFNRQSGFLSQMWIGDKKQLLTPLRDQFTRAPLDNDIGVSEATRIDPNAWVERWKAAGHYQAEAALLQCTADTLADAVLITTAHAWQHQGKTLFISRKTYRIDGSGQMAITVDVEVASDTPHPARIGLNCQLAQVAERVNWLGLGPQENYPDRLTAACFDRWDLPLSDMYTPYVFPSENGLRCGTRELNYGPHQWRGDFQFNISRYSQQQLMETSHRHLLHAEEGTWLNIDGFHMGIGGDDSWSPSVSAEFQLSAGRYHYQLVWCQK

O=[N+]([O-])c1ccc(S(=O)(=O)c2ccccc2)nc1
EC50 [1]: > 40 µM (inactive)
EC50 [2]: 5.64 µM (active)
EC50 [3]: 1.89 µM (active)
CC50 [4]: 8.09 µM (active)
IC50 [5]: 3.48 µM (active)
IC50 [6]: 13.1 µM (active)
EC50 [7]: 2.5 µM (active)
AC50 [8]: 6.73 µM (active)
AC50 [9]: 1.74 µM (active)
AC50 [10]: 16.2 µM (active)
AC50 [11]: 3.96 µM (active)
IC50 [12]: 2.65 µM (active)
AC50 [13]: 8.59 µM (active)
AC50 [14]: 6.81 µM (active)
AC50 [15]: 3.97 µM (active)
AC50 [16]: 4.77 µM (active)
AC50 [17]: 8.17 µM (active)

Cc1ccc(CN2CCSc3ccc(C(=O)NC4CCN(Cc5ccccc5)CC4)cc32)cc1
CC50 [18]: > 40 µM (active)
EC50 [3]: 1.37 µM (active)
EC50 [7]: > 60 µM (not active)

CCOc1cc(S(=O)(=O)Nc2cc(C)cc(C)c2)ccc1Cl
Absolute IC50 (XBP1) [19]: 10 µM

O=C(c1cc(-c2ccco2)nc2ccccc12)N1CCC(CO)CC1
IC50 [20]: > 56.8 µM (inactive)

CCN(CC)C(=O)C1CCCN(c2ccc([N+](=O)[O-])cc2/C=N/NC(=O)c2cccc([N+](=O)[O-])c2)C1 (stereo not given)
CC50 [18]: > 40 µM (active)

O=C(N/N=C/c1ccsc1)c1cc2ccccc2o1
EC50 [21]: > 120 µM (not active)

CCOc1ccc(/C=N/n2cc(-c3ccccc3)nc2S)cc1
EC50 [22]: > 79.4 µM (not active)
EC50 [23]: > 79.4 µM (not active)
EC50 [24]: > 79.4 µM (not active)
EC50 [3]: 2.35 µM (active)
EC50 [25]: 4.76 µM (active)
EC50 [7]: > 60 µM (not active)

Cc1ccc(-n2ncc(C(=O)Nc3cc(Cl)cc(Cl)c3)c2C2CCNCC2)cc1C
EC50 [26]: > 120 µM (not active)
EC50 [27]: 3.72 µM (active)
EC50 [28]: 9.16 µM (active)
EC50 [29]: 7.75 µM (active)
EC50 [30]: 8.6 µM (inconclusive)
EC50 [3]: 2.02 µM (active)
IC50 [5]: 5.23 µM (active)
EC50 [7]: > 30 µM (not active)
EC50 [31]: 6.96 µM (inconclusive)
EC50 [32]: 5.28 µM (active)
